pIC50: −log10 of the molar value. Converted amounts (≈) assume the structure as drawn. Where two headings read alike, the source gives them in different places.
Columns and labels:
[1] = biological target: T1, human liver microsomal 2,3-oxidosqualene-lanosterol cyclase (OSC) (Homo sapiens, UniProt P48449); test: Inhibition of human liver microsomal 2,3-oxidosqualene-lanosterol cyclase (OSC); type: biochemical; conditions: human liver microsomes; for pIC50: concentration reducing conversion of MOS into lanosterol to 50% of control
T1 construct: Liver microsomes from a healthy volunteer were prepared in sodium phosphate buffer (pH 7.4); from tissue; host or cells: human liver microsomes from a healthy volunteer
T1 sequence (P48449 1-732): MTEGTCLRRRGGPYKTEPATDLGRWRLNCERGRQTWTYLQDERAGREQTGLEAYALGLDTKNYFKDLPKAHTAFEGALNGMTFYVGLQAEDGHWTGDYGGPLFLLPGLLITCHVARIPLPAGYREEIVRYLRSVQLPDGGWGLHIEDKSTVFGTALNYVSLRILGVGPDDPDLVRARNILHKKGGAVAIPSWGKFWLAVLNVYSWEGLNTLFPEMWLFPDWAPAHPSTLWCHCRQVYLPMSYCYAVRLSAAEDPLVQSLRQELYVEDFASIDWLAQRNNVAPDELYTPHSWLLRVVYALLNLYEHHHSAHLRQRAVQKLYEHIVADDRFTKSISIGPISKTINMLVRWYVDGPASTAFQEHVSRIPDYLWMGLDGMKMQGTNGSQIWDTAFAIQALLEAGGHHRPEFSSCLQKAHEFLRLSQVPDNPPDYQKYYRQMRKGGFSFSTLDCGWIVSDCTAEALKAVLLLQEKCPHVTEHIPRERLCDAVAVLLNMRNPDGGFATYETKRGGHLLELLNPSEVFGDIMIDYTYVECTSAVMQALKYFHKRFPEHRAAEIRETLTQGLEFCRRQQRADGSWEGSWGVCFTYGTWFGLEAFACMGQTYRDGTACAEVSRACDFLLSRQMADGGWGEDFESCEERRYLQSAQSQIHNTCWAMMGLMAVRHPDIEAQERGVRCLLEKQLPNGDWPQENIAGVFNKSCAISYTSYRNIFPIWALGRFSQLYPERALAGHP
Description: Inhibition of Human Liver Microsomal 2,3-Oxidosqualene-lanosterol Cyclase (OSC)
Liver microsomes from a healthy volunteer were prepared in sodium phosphate buffer (pH 7.4). The OSC activity was measured in the same buffer which also contained 1 mM EDTA and 1 mM dithiothreitol. The microsomes were diluted to 0.8 mg/ml protein in cold phosphate buffer. Dry [^14C]R,S-monooxidosqualene (MOS; 12.8 mCi/mmol) was diluted to 20 nCi/μl with ethanol and mixed with phosphate buffer-1% BSA (Bovine Serum Albumin). A stock solution of 1 mM test substance in DMSO was diluted to the desired concentration with phosphate buffer-1% BSA. 40 μl of microsomes were mixed with 20 μl of the solution of the test substance and the reaction was subsequently started with 20 μl of the [^14C]R,S-MOS solution. The final conditions were: 0.4 mg/ml of microsomal proteins and […] of [^14C]R,S-MOS in phosphate buffer, pH 7.4, containing 0.5% albumin, DMSO <0.1% and ethanol <2%, in a total volume of 80 μl.
After 1 hour at 37° C. the reaction was stopped by the addition of 0.6 ml of 10% KOH-methanol, 0.7 ml of water and 0.1 ml of hexane:ether (1:1, v/v) which contained 25 μg of non-radioactive MOS and 25 μg of lanosterol as the carrier. After shaking 1 ml of hexane:ether (1:1, v/v) was added to each test tube, these were again shaken and then centrifuged. The upper phase was transferred into a glass test tube, the lower phase was again extracted with hexane:ether and combined with the first extract. The entire extract was evaporated to dryness with nitrogen and the residue was suspended in 50 μl of hexane:ether and applied to a silica gel plate. Chromatographic separation was effected in hexane:ether (1:1, v/v) as the eluent. […] After drying radioactive MOS and lanosterol were observed on the silica gel plate. The ratio of MOS to lanosterol was determined from the radioactive bands in order to determine the OSC inhibition.
The test was carried out on the one hand with a constant test substance concentration of 100 nM and the percentage OSC inhibition against controls was calculated. In addition, the test was carried out with different test substance concentrations and subsequently the IC50 value was calculated, i.e. the concentration required to reduce the conversion of MOS into lanosterol to 50% of the control value.

plasma cholesterol = test: Cholesterol lowering in fat-fed hamsters; type: in vivo; conditions: fat-fed male golden hamsters, treated 10 days, 200 μmol (about 70-120 mg/kg/ay) in diet, percent of the control animals
Description: Cholesterol Lowering in Fat-fed Hamsters. Male golden hamsters kept individually were pre-treated for 7 days with a diet containing grated coconut (40 cal. % fat). The animals were then divided into groups each comprising 5 animals. During the treatment the animals were maintained on the same diet. Each test substance was firstly homogenized in 9 ml of water and subsequently mixed with the milled diet. The controls received only feed converted into a paste with water. The animals were treated for 10 days with a test substance dosage of 200 μmol (about 70-120 mg/kg/ay). Blood samples (200 μl) were removed via the jugular vein under light anaesthesia on the last day of the pre-treatment and one day after the last administration of test substance. The plasma cholesterol concentration was determined using a calorimetric enzyme method. The plasma lipoproteins were separated by exclusion chromatography ([…] et al., Science Tools, 36, 1992, 10-12). The total cholesterol was determined in each fraction using a fluorometric enzyme method (Gamble et al., J. Lipid Res., 19, 1978, 1068-1071) in order to calculate the amount of cholesterol in the LDL and HDL fractions. The activity on plasma cholesterol and LDL and HDL cholesterol, expressed in percent of the control animals, for the products of Examples 8a and 12 is reproduced in the following Table: […]

Aspergillus fumigatus = test: Antifungal activity in vitro, microdilution method; type: cell-based; conditions: growth inhibition, incubation at 27° C. for 48 hours, read-out: IC50 (mg/ml) for: A. fumigatus after: 48 hours
Description: (§1) Antifungal Activity In Vitro The compounds were tested for antifungal activity against Candida albicans, Cryptococcus neoformans and Aspergillus fumigatus using a microdilution method on microtitre plates (96 wells per plate). Yeast supplemented with 1% glucose and 0.25% di-potassium phosphate was used for the three fungal strains. The fungal cells were inoculated at 3×10^4 CFU (Colony Forming Unit) in […] of medium per well. The medium contained increasing concentrations of test substance. After incubation at 27° C. for 24 or 48 hours the turbidity in each well was measured by a microtitre plate reader. The growth inhibition was calculated in comparison to a control (without test substance). The IC50 value given in the following Table is the concentration of test substance at which the growth is inhibited by 50%.

Candida albicans = test: Antifungal activity in vitro, microdilution method; type: cell-based; conditions: growth inhibition
Description: as §1

Cryptococcus neoformans = test: Antifungal activity in vitro, microdilution method; type: cell-based; conditions: growth inhibition, incubation at 27° C. for 48 hours, read-out: IC50 (mg/ml) for: C. neoformans after: 48 hours
Description: as §1

[2] = constant test substance concentration of 100 nM, 1 hour at 37° C., against controls
[3] = incubation at 27° C. for 24 hrs., read-out: IC50 (mg/ml) for: C. albicans after: 24 hrs.
[4] = incubation at 27° C. for 48 hrs., read-out: IC50 (mg/ml) for: C. albicans after: 48 hrs.

pIC50 [1]	Inhibition of OSC (%) [1, 2] [%]	inhibition at 0.1 µM [1, 2] [%]	IC50 (Aspergillus fumigatus) [mg/mL]	IC50 (Candida albicans; [3]) [mg/mL]	IC50 (Candida albicans; [4]) [mg/mL]	IC50 (Cryptococcus neoformans) [mg/mL]	SMILES	HDL cholesterol (plasma cholesterol) [%]	LDL cholesterol (plasma cholesterol) [%]	Total cholesterol (plasma cholesterol) [%]
7.74	82						C=CCN(C)C/C=C/COc1ccc(C(C)(O)c2ccc(Br)cc2)cc1 (racemic) [Example 8a, (E)-(RS)-1-[4-[4-(allyl-methyl-amino)-but-2-enyloxy]-phenyl]-(4-bromo-phenyl)-ethanol]	−18	−51	−30
7.72		84					CN(C/C=C/COc1ccc(C(=O)c2ccc(Br)cc2)cc1)C1CC1 [Example 12, (E)-(4-bromo-phenyl)-[4-[4-(cyclopropyl-methyl-amino)-but-2-enyloxy]-phenyl]-methanone]	−23	−54	−25
8.35		91	0.00071 (≈ 1.7 µM)	0.00071 (≈ 1.7 µM)	0.021 (≈ 50.3 µM)	< 0.00032	C=CCN(C)C/C=C/CNc1ccc(C(=O)c2ccc(Br)cc2)cc1F [Example 29]			
8.05		92	0.0024 (≈ 5.39 µM)	< 0.00032	0.0011 (≈ 2.47 µM)	< 0.00032	C=CCN(C)CCCCCCOc1ccc(C(=O)c2ccc(Br)cc2)c(N)c1 [Example 36, [2-amino-4-[6-(allyl-methyl-amino)-hexyloxy]-phenyl]-(4-bromo-phenyl)-methanone]			
			0.0064 (≈ 14.8 µM)	< 0.00032	0.005 (≈ 11.6 µM)	< 0.00032	C=CCN(C)CCCCCCOc1ccc(C(=O)c2ccc(Br)cc2)nc1 [Example 43b, [5-[6-(allyl-methyl-amino)-hexyloxy]-pyridin-2-yl]-(4-bromo-phenyl)-methanone]			
		73	0.0061 (≈ 18.4 µM)	< 0.00032	0.0065 (≈ 19.6 µM)	0.00069 (≈ 2.08 µM)	C=CCN(C)C/C=C(\C)CC/C=C(\C)CCC(=O)CCC=C(C)C [Example 54b, (9E,13E)-15-(allyl-methyl-amino)-2,9,13-trimethyl-pentadeca-2,9,13-trien-6-one]			
